Measurements published in article PMC8011931, “Identification, Structure–Activity Relationship, and Biological Characterization of 2,3,4,5-Tetrahydro-1H-pyrido[4,3-b]indoles as a Novel Class of CFTR Potentiators” (Journal of Medicinal Chemistry, 2020).

Target: F508del-CFTR (Homo sapiens, UniProt P13569, DEL508-508)
Assay: HS-YFP-based assay for CFTR activity on F508del-CFTR FRT cells rescued at 32 °C for 24 h
Format: cell-based
Design: expressed in transfected cells; key to Emax: fold increase in F508del-CFTR rescue relative to hit 3 (normalized)
Conditions: for EC50: F508del-CFTR FRT cells rescued at 32 °C for 24 h, plus forskolin; for EC50 / Emax (FRT F508del-CFTR): mean ± SD (n = 3–6), n.a.: not active (up to 20 μM); for Emax: supplementary csv, same data as Tables 1–3; for Emax (FRT F508del-CFTR): normalized for the activity of analogue 3
Description: The chemical library was screened in duplicate on a Fischer rat thyroid (FRT) cell line, stably coexpressing F508del-CFTR and the halide-sensitive yellow fluorescent protein, HS-YFP.[23],[34],[35] To overcome the F508del trafficking defect, cells were initially incubated for 24 h at 32 °C and then acutely treated (15–30 min) with a single compound (5 μM) in combination with forskolin (10 μM). After stimulation, the F508del-CFTR activity in the plasma membrane was calculated by measuring the rate of fluorescence quenching arising from iodide influx.[34] This activity was compared to that of wells containing forskolin alone (negative control) or forskolin plus VX-770 (1 μM, as a positive control) (Figure 2A). Analysis of screening performance with the Z′ method gave a score of 0.6, which can be considered optimal for this type of assay. The activity scores for each compound were then plotted as an ordered distribution (Figure 2B). All compounds whose average activity calculated from the two rounds of screening was greater than 185% with respect to the negative control (i.e., forskolin alone) were considered as primary hits.
The primary hits were confirmed by testing them at different concentrations, in order to extrapolate the dose–response relationship. First, we focused on the F508del mutant. The compounds were tested in the low micromolar range, in the presence of forskolin (10 μM), on F508del-CFTR FRT cells following rescue of the trafficking defect by low-temperature incubation, as done for the primary screening. The most interesting hits were subsequently tested for their ability to overcome the more severe gating defect of pure class III mutant using FRT cells stably expressing G551D-CFTR (Figure 3B).
The role of the heteroaryl group (A) acylating the position 2 of the tetrahydro-γ-carboline was initially explored by modifying the substituent on the pyrazolyl residue and replacing the pyrazole with other rings, while keeping the 8-methoxy carboline moiety unmodified. The activity of each compound is described in terms of normalized maximal efficacy (Emax), the maximum fold increase in the rescue of F508del-CFTR activity with respect to hit 3, and potency (EC50), the concentration producing half-maximal efficacy.
FRT cells stably expressing mutant F508del-CFTR or G551D-CFTR and the halide-sensitive yellow fluorescent protein (HS-YFP) YFP-H148Q/I152L and CFBE41o-cells stably expressing F508del-CFTR and HS-YFP were generated as previously described.[21],[57] FRT cells were cultured using the Coon’s modification of Ham’s F12 medium, while CFBE41o-cells were cultured in the modified Eagle’s medium. Media were supplemented with 10% fetal calf serum, 2 mM L-glutamine, 100 U/mL of penicillin, and […] of streptomycin. For functional assays of CFTR activity based on the HS-YFP assays, CFBE41o- or FRT cells were plated (50,000 cells/well) on clear-bottom 96-well black microplates (Corning Life Sciences, Acton, MA). The following day, cells were assayed. In the case of FRT cells expressing F508del-CFTR, plates were kept at 32 °C (or treated with correctors at 37 °C where indicated) for an additional 24 h to rescue the mutant trafficking defect, before assays.
Prior assay, cells were washed with phosphate-buffered saline (PBS) containing (in mM) 137 NaCl, 2.7 KCl, 8.1 Na2HPO4, 1.5 KH2PO4, 1 CaCl2, and 0.5 MgCl2. Cells were then incubated for 25 min with 60 μL of PBS plus forskolin (20 μM) and test compounds (at the desired concentration) to stimulate mutant CFTR. Cells were then transferred to microplate readers (FluoStar Optima; BMG Labtech, Offenburg, Germany) for CFTR activity determination. The plate readers were equipped with high-quality excitation (HQ500/20X: 500 ± 10 nm) and emission (HQ535/30M: 535 ± 15 nm) filters for YFP (Chroma Technology). […]

Chain of F508del-CFTR (P13569 with tags, fused parts or gaps DEL508-508): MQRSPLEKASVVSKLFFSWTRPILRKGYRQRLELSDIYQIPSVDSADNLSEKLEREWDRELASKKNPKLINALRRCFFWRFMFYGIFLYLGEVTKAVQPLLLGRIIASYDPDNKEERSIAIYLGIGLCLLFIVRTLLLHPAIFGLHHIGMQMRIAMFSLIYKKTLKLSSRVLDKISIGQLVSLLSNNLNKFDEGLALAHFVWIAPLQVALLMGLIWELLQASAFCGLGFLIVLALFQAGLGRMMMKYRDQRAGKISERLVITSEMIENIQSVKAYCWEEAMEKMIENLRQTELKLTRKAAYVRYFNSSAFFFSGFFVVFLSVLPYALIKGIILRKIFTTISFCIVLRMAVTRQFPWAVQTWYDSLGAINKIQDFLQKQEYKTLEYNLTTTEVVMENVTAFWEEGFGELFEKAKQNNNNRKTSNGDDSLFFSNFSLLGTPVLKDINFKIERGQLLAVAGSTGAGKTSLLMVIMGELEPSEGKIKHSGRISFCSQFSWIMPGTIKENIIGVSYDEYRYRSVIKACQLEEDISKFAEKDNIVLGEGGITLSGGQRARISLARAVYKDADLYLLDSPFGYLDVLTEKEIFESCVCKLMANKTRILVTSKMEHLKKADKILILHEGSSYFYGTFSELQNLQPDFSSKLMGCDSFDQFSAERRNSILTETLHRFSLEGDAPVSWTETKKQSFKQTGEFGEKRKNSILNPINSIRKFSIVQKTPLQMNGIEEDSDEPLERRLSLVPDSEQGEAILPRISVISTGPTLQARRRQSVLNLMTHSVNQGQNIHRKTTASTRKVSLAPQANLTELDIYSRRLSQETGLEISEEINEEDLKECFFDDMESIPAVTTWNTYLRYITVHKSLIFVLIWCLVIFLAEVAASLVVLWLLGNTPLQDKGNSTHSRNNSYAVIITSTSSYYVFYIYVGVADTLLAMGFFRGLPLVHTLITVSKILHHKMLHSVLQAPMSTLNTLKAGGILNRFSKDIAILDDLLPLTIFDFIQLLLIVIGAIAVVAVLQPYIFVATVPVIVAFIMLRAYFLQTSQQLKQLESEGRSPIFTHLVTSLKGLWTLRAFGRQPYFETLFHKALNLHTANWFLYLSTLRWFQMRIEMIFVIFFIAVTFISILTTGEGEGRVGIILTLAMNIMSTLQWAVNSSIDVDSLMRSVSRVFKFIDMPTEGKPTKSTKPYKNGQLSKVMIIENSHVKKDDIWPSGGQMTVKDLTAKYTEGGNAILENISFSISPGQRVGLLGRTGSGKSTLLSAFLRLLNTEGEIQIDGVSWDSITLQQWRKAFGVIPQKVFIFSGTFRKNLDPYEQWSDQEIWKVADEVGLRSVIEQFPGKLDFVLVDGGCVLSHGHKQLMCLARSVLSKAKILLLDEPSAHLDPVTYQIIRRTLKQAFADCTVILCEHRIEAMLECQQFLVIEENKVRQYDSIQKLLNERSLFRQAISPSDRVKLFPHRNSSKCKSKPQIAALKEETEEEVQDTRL

Structure (SMILES) | fold drop in potency with respect to 20 (EC50, F508del-CFTR FRT cells) | EC50 | Emax | Emax (FRT F508del-CFTR)
O=C(c1cc(C(F)(F)F)[nH]n1)N1CCc2[nH]c3c(F)cc(C(F)(F)F)cc3c2C1 [Compound 28, (6-Fluoro-8-trifluoromethyl-1,3,4,5-tetrahydro-2H-pyrido[4,3-b]indol-2-yl)-(5-(trifluoromethyl)-1H-pyrazol-3-yl)methanone] | 6 fold | 0.57 ± 0.14 µM | 0.94 ± 0.13 | 
COc1ccc2[nH]c3c(c2c1)CN(C(=O)c1ccc(Br)o1)CC3 [Compound 9, (8-Methoxy-1,3,4,5-tetrahydro-2H-pyrido[4,3-b]indol-2-yl)-(5-bromofuran-2-yl)methanone] |  | 3.7 ± 1.1 µM | 0.94 ± 0.11 | 
COc1ccc2[nH]c3c(c2c1)CN(C(=O)c1cc(C(F)(F)F)n(C)n1)CC3 [Compound 11, (8-Methoxy-1,3,4,5-tetrahydro-2H-pyrido[4,3-b]indol-2-yl)-(1-methyl-5-(trifluoromethyl)-1H-pyrazol-3-yl)methanone] |  | 7.1 ± 1.6 µM | 1.20 ± 0.08 | 1.20 ± 0.08
COc1ccc2[nH]c3c(c2c1)CN(C(=O)c1cc(C)[nH]n1)CC3 [Compound 5, (8-Methoxy-1,3,4,5-tetrahydro-2H-pyrido[4,3-b]indol-2-yl)-(5-methyl-1H-pyrazol-3-yl)methanone] |  | 60 ± 4 µM | 0.59 ± 0.11 | 0.59 ± 0.11
COc1ccc2[nH]c3c(c2c1)CN(C(=O)c1cc(C(C)C)[nH]n1)CC3 [Compound 6, (8-Methoxy-1,3,4,5-tetrahydro-2H-pyrido-(5-isopropyl-1H-pyrazol-3-yl)-[4,3-b]indol-2-yl)methanone] |  | 5.7 ± 0.7 µM | 0.95 ± 0.08 | 0.95 ± 0.08
CC(C)c1ccc2[nH]c3c(c2c1)CN(C(=O)c1cc(C(F)(F)F)[nH]n1)CC3 [Compound 18, (8-Isopropyl-1,3,4,5-tetrahydro-2H-pyrido[4,3-b]indol-2-yl)-(5-(trifluoromethyl)-1H-pyrazol-3-yl)methanone] |  | 1.4 ± 0.9 µM | 0.69 ± 0.09 | 
Cc1ccc(F)c2[nH]c3c(c12)CN(C(=O)c1cc(C(F)(F)F)[nH]n1)[C@@H](C)C3 [Compound 40, (S)-(6-Fluoro-3,9-dimethyl-1,3,4,5-tetrahydro-2H-pyrido[4,3-b]indol-2-yl)-(5-(trifluoromethyl)-1H-pyrazol-3-yl)methanone] |  | 1.1 ± 0.2 µM | 1.31 ± 0.18 | 1.31 ± 0.18
O=C(c1cc(C(F)(F)F)[nH]n1)N1CCc2[nH]c3ccc(F)cc3c2C1 [Compound 19, (8-Fluoro-1,3,4,5-tetrahydro-2H-pyrido[4,3-b]indol-2-yl)(5-(trifluoromethyl)-1H-pyrazol-3-yl)methanone] |  | 0.48 ± 0.05 µM | 0.97 ± 0.11 | 

Now those with a lower EC50, led by results:

fold drop in potency with respect to 20 (EC50, F508del-CFTR FRT cells) | EC50 | Emax | Emax (FRT F508del-CFTR) | Structure (SMILES)
 | 0.05 ± 0.01 µM | 0.9 ± 0.3 |  | Cc1ccc(F)c2[nH]c3c(c12)C(C)N(C(=O)c1cc(C(F)(F)F)[nH]n1)CC3 (single isomer, unassigned) [Compound 42, (S)- or (R)-(6-Fluoro-1,9-dimethyl-1,3,4,5-tetrahydro-2H-pyrido[4,3-b]indol-2-yl)-(5-(trifluoromethyl)-1H-pyrazol-3-yl)methanone]
 | 0.15 ± 0.07 µM | 0.66 ± 0.12 |  | O=C(c1cc(C(F)(F)F)[nH]n1)N1CCc2[nH]c3c(F)cc(F)cc3c2C1 [Compound 27, (6,8-Difluoro-1,3,4,5-tetrahydro-2H-pyrido[4,3-b]indol-2-yl)-(5-(trifluoromethyl)-1H-pyrazol-3-yl)methanone]
 | 0.23 ± 0.05 µM | 1.05 ± 0.17 |  | O=C(c1cc(C(F)(F)F)[nH]n1)N1CCc2[nH]c3ccccc3c2C1 [Compound 13, (1,3,4,5-Tetrahydro-2H-pyrido[4,3-b]indol-2-yl)-(5-(trifluoromethyl)-1H-pyrazol-3-yl)methanone]
 | 0.03 ± 0.02 µM | 1.0 ± 0.3 |  | Cc1ccc(F)c2[nH]c3c(c12)C(C)N(C(=O)c1cc(C(F)(F)F)[nH]n1)CC3 (racemic) [Compound 32, (±)-(6-Fluoro-1,9-dimethyl-1,3,4,5-tetrahydro-2H-pyrido[4,3-b]indol-2-yl)-(5-(trifluoromethyl)-1H-pyrazol-3-yl)methanone]
 | 0.23 ± 0.08 µM | 0.70 ± 0.02 |  | Cc1cc(F)c2[nH]c3c(c2c1)CN(C(=O)c1cc(C(F)(F)F)[nH]n1)CC3 [Compound 26, (6-Fluoro-8-methyl-1,3,4,5-tetrahydro-2H-pyrido[4,3-b]indol-2-yl)-(5-(trifluoromethyl)-1H-pyrazol-3-yl)methanone]
 | 0.16 ± 0.03 µM | 0.89 ± 0.03 | 0.89 ± 0.03 | O=C(c1cc(C(F)(F)F)[nH]n1)N1CCc2[nH]c3ccc(OC(F)(F)F)cc3c2C1 [Compound 22, (8-(Trifluoromethoxy)-1,3,4,5-tetrahydro-2H-pyrido[4,3-b]indol-2-yl)-(5-(trifluoromethyl)-1H-pyrazol-3-yl)methanone]
 | 0.44 ± 0.06 µM | 0.95 ± 0.04 |  | O=C(c1cc(C(F)(F)F)[nH]n1)N1CCc2[nH]c3ccc(C(F)(F)F)cc3c2C1 [Compound 21, (8-(Trifluoromethyl)-1,3,4,5-tetrahydro-2H-pyrido[4,3-b]indol-2-yl)-(5-(trifluoromethyl)-1H-pyrazol-3-yl)methanone]
